Results taken from paper PMC8639922, “KSHV transactivator-derived small peptide traps coactivators to attenuate MYC and inhibits leukemia and lymphoma cell growth” (Communications Biology, 2021).
Square brackets hold non-standard residues; d marks the D form. Peptide text beside a SMILES is read from it. Orn = NCCC[C@H](N)C(=O)O; βAla = NCCC(=O)O

Key:
5 SWI/SNF components = test: ELISA-based peptide binding assay, summary for all five proteins; conditions: biotin-conjugated peptide, same peptide concentrations
Description: Fig. 3 Effects of VGN50 on KSHV gene transcription and VGN50 binding with SWI/SNF components. a KSHV qRT-PCR array analysis was used to study effects of VGN50 on KSHV gene transcription in a genome-wide manner. Uninduced (−; no doxycycline added) or dox-induced (+; 1 μg/ml) cells were treated with VGN50 or the mutant peptide (Mut-P) at a concentration of 24 μM. Samples were collected at 24 h post-treatment. Expression in uninduced cells was set as 1 for each viral gene and expression shown as fold activation relative to no-Dox samples. Selected cellular genes were also included in the PCR array for comparison. 18S ribosomal RNA was used as an internal control. b KSHV protein expression. […] Peptide binding measured as OD values at 450 nm are shown. […]
To confirm the basis of the VGN50 action, the biochemical interactions between VGN50 and SWI/SNF proteins (i.e., putative VGN50 target molecules), were examined by ELISA-based binding assays using purified five individual SWI/SNF components prepared from baculovirus-infected Sf9 cells (Fig. 3d). Increasing concentrations of biotin-conjugated VGN50 or Mut-P were incubated in an ELISA plate coated with each SWI/SNF component, and the bound peptides were detected by HRP-streptavidin (Fig. 3e). […]

MYC expression in BCBL-1 = test: MYC qRT-PCR; type: cell-based, human; conditions: BCBL-1, 24 μM, 24 h
Description: (§1) As a next step, we sought to identify the cellular pathways that are impacted by VGN50. For this, RNA-seq analysis was conducted on total RNA isolated from cells harvested after 24 h of incubation with VGN50. Mutant peptide was used as a comparison to identify differentially regulated genes by VGN50 (Fig. 4a). […] Furthermore, we confirmed the result by RT-qPCR that the expression of MYC itself was decreased in both BCBL-1 and BC-1 cells after treatment with VGN50, but not mutant peptide (Fig. 4c).
(§2) Fig. 4 VGN50 target identification with RNA-sequencing. a Total RNA-sequencing. BCBL-1 cells were treated with either VGN50 or mutant peptide for 24 h (24 μM, n = 3). Untreated cells were used as a negative control. RNA-sequencing datasets from VGN50-peptide-treated samples were compared with that from mutant-peptide-treated samples, and differentially regulated genes were depicted as a volcano plot (left panel). b Gene Set Enrichment Analyses (GSEA). […] Peptide-treated samples were used for qRT-PCR analysis in duplicate and confirmed MYC down-regulation. (VGN50, 24 μM, 24 h post treatment) d Direct target identification with SLAM-seq. The experimental scheme is shown in the upper section of the panel. VGN50 or mutant peptide (24 μM final concentration) were added to BC-1 or BCBL-1 cells 30 mins prior to incubation with 4sU, and RNA was labeled for 1 h in the presence of each peptide. The C/T converted RNA-species were compared with mock-treated samples and depicted as scatter plots. Each treatment was performed in duplicate and nascent transcripts with p-values <0.05 are indicated as red dots. e Integrative Genomics Viewer (IGV). Both non-T/C converted and converted sequence reads were visualized with the IGV, and a snapshot of the MYC 3′-UTR region is presented. […] The strategy of gene selection for CSAN is described on the left-hand side of the panel. […] The number of common transcriptional regulators are shown in the Venn diagram and selected transcription and co-regulatory protein names are also included. The complete list of gene names is presented in Supplementary Fig. 3.

MYC expression in BC-1 = test: MYC qRT-PCR; type: cell-based, human; conditions: BC-1, 24 μM, 24 h
Description: as §1, §2

CC(C)C[C@H](NC(=O)CCNC(=O)[C@H](CCCNC(=N)N)NC(=O)[C@H](CCCNC(=N)N)NC(=O)[C@H](CCCNC(=N)N)NC(=O)[C@H](CCCN)NC(=O)[C@H](CCCNC(=N)N)NC(=O)[C@H](CCCNC(=N)N)NC(=O)[C@H](CCCCN)NC(=O)[C@H](CCCCN)NC(=O)[C@H](N)CCCNC(=N)N)C(=O)N[C@@H](CO)C(=O)N[C@@H](CO)C(=O)N[C@@H](C)C(=O)N[C@@H](C)C(=O)N[C@@H](C)C(=O)NCC(=O)N[C@@H](CC(C)C)C(=O)N[C@@H](Cc1ccc(O)cc1)C(=O)N[C@@H](CCC(N)=O)C(=O)N[C@@H](CC(C)C)C(=O)N[C@@H](CC(=O)O)C(=O)N[C@H](C(=O)O)[C@@H](C)O [Mt-P] (H-[dR]KKRR[Orn]RRR[βAla]LSSAAAGLYQLDT-OH; N-terminus and C-terminus assumed)
Binding to SWI/SNF components compared with VGN50 (5 SWI/SNF components): did not bind SWI/SNF components as much as VGN50
C-myc 2^-(DCT) (MYC expression in BCBL-1; replicate 1): 9.038e-5
C-myc 2^-(DCT) (MYC expression in BCBL-1; replicate 2): 8.988e-5
C-myc 2^-(DCT) (MYC expression in BC-1; replicate 1): 9.403e-5
C-myc 2^-(DCT) (MYC expression in BC-1; replicate 2): 9.337e-5
